# Experimental data published in patent US10233221B2, “Peptide having eight amino acid sequences derived from cage and retaining anticancer activity and activity to promote anticancer drug sensitivity of anticancer drug-resistant cancer cells” (L-Base Co., Ltd., priority 2014, dated 2019).
# Where no end group is shown, it is not given here. [ ]: non-standard residue; d: D form. The star is where a group is joined. FITC = O=C1OC2(c3ccc(O)cc3Oc3cc(O)ccc32)c2ccc(NC(=S)*)cc21
# Experiments:
# [1] = test system: angiogenesis inducing ability of Malme3M^R; test: Angiogenesis, intravital microscopy; format: in vivo; details: conditioned media of treated Malme3M^R mixed with Matrigel, injected into BALB/C mice
# Method: (§1) In order to examine the effects of AQTGTGKT (SEQ ID NO: 1 synthesized from L-amino acid) and D-AQTGTGKT (SEQ ID NO: 1 synthesized from D-amino acid) peptides on the migration, invasiveness, and angiogenesis inducing ability of anticancer drug-resistant cell line, the invasion assay, wound-healing migration assay, and intravital microscopy were carried out by conventional methods using Celastrol-resistant melanoma cell line (Malme3M^R).
# After Celastrol-resistant melanoma cell line (Malme3M^R) was treated with AQTGTGKT (SEQ ID NO: 1 synthesized from L-amino acid) or D-AQTGTGKT (SEQ ID NO: 1 synthesized from D-amino acid) peptide, the obtained conditioned media were mixed with Matrigel and then injected into BALB/C mice, and then the mice were injected with FITC-dextran to examine the effect on angiogenesis using intravital microscopy.
# [2] = test system: Celastrol-resistant melanoma cell line (Malme3M^R); test: Western blotting of PARP and FAK cleavage; format: cell-based; details: 1 μM peptide 24 hours, then 1 μM and 10 μM Celastrol and Taxol 1 hour, vs cell lines without peptide
# Method: (§2) In order to examine the effects of AQTGTGKT (SEQ ID NO: 1 synthesized from L-amino acid) or D-AQTGTGKT (SEQ ID NO: 1 synthesized from D-amino acid) peptides on the anticancer drug resistance of cancer cells, MTT assay and western blotting were conducted by a known method.
# (§3) Liver cancer cell line (SNU387^R) and melanoma cell line (Malme3M^R), which show resistance to Celastrol as an anticancer drug, were transfected with 1 μM AQTGTGKT (SEQ ID NO: 1 synthesized from L-amino acid) or D-AQTGTGKT (SEQ ID NO: 1 synthesized from D-amino acid) peptide for 24 hours, respectively, and then treated with 1 μM and 10 μM Celastrol and Taxol for 1 hour.
# [3] = test system: Celastrol-resistant liver cancer cell line (SNU387^R); test: Western blotting of PARP and FAK cleavage; format: cell-based; details: 1 μM peptide 24 hours, then 1 μM and 10 μM Celastrol and Taxol 1 hour, vs cell lines without peptide
# Method: as §2, §3
# [4] = test system: CAGE-GSK3β, GSK3β ser9, Cyclin D1 in lung tissues; test: Immunoprecipitation and western blotting of lung tissues; format: in vivo, nude mouse
# Text: After the protein was collected from the lung tissues by a conventional method, the protein expression and activation patterns were examined through immunoprecipitation and western blotting.
# [5] = test system: Malme3M^R tumor; test: Tumorigenicity of anticancer drug-resistant cell line in nude mouse; format: in vivo; details: 10 μg/mouse tail vein, 6 times every 3 days
# Method: In order to examine that the AQTGTGKT (SEQ ID NO: 1 synthesized from L-amino acid) is a tumor-specific peptide, experiments were carried out by a known method using an anticancer drug-resistant cell line and an immune-deficient mouse.
# Celastrol-resistant melanoma cell line (Malme3M^R) having high expression of CAGE was injected into the side of a nude mouse at 1×10^6 cells. When a tumor was grown to have a measurable tumor size, the tumor size was measured using a digital gauge at regular intervals, and the tumor size was calculated using a known formula (widest length×shortest length×0.5).
# After the tumor was induced by the above method, AQTGTGKT (SEQ ID NO: 1 synthesized from L-amino acid) peptide (10 μg/mouse) was injected into the tail vein alone or in combination with Celastrol or Taxol anticancer drug in a total of 6 times every 3 days for 2 weeks, while the size of the tumor was measured.
# [6] = test system: Taxol-resistant melanoma cell line (Malme3M^R-Taxol); test: Wound-healing migration assay; format: cell-based; details: 24-48 hours
# Method: as §1
# (§4) Celastrol-resistant melanoma cell line (Malme3MR) or Taxol-resistant melanoma cell line (Malme3M^R-Taxol) was cultured in 24-well culture dishes, and wounded using a 1 ml tip by a conventional method, and then the migrating cells were counted for 24-48 hours.
# [7] = test system: Celastrol-resistant melanoma cell line (Malme3MR); test: Wound-healing migration assay; format: cell-based; details: 24-48 hours
# Method: as §1, §4
# [8] = biological target: T1, CAGE and GSK3β proteins in Malme3M^R (Homo sapiens, UniProt Q86TM3); test: Immunoprecipitation of CAGE and GSK3β; format: cell-based
# T1 construct: Celastrol-resistant liver cancer cell line (SNU387^R) and melanoma cell line (Malme3M^R) having high expression of CAGE; endogenous in cells; host or cells: Malme3M^R (Celastrol-resistant melanoma cell line)
# Method: (§5) In order to examine the intercellular migration and action mechanisms of AQTGTGKT (SEQ ID NO: 1 synthesized from L-amino acid) and D-AQTGTGKT (SEQ ID NO: 1 synthesized from D-amino acid) peptides, each of the peptides was prepared in a form of being conjugated to fluorescein isothiocyanate (FITC), and used to perform transfection, immunofluorescence, immunoprecipitation, and western blotting by known methods.
# (§6) In addition, the cell lines were transfected with AQTGTGKT (SEQ ID NO: 1 synthesized from L-amino acid) or D-AQTGTGKT (SEQ ID NO: 1 synthesized from D-amino acid) peptide, and then subjected to immunoprecipitation and western blotting.
# [9] = biological target: T2, CAGE and GSK3β proteins in SNU387^R (Homo sapiens, UniProt Q86TM3); test: Immunoprecipitation of CAGE and GSK3β; format: cell-based
# T2 construct: Celastrol-resistant liver cancer cell line (SNU387^R) and melanoma cell line (Malme3M^R) having high expression of CAGE; endogenous in cells; host or cells: SNU387^R (Celastrol-resistant liver cancer cell line)
# Method: as §5, §6
# [10] = test system: GSK3β ser9 and Cyclin D1 in Malme3M^R; test: Western blotting of GSK3β ser9 and Cyclin D1; format: cell-based
# Method: as §5
# (§7) The same cell lines were transfected with AQTGTGKT (SEQ ID NO: 1 synthesized from L-amino acid) or FITC-AQTGTGKT (FITC-SEQ ID NO: 1) peptide, and then subjected to immunoprecipitation and western blotting.
# as §6
# [11] = test system: GSK3β ser9 and Cyclin D1 in SNU387^R; test: Western blotting of GSK3β ser9 and Cyclin D1; format: cell-based
# Method: as §5, §7, §6
# [12] = test system: CAGE-GSK3β, GSK3β ser9, cyclin D1, MDR1 in tumor tissues; test: Western blotting and immunoprecipitation of tumor tissues; format: in vivo, nude mouse
# Method: After the above experiments, the protein expression and activation were examined. The tumor tissues were disrupted by liquid nitrogen according to a known method, reacted with a dissolution buffer on ice for 30 minutes, and centrifuged at 13,000 rpm for 15 minutes, and then the supernatant solution was collected as a protein sample. Thereafter, this protein sample was subjected to western blotting and immunoprecipitation to examine the protein expression and activation and the interconnection of proteins.
# [13] = test system: Malme3M^R tumor metastasis; test: Lung metastasis of anticancer drug-resistant cell line in nude mouse; format: in vivo; details: 10 μg/mouse tail vein, 6 times every 3 days from day 4
# Method: In order to examine the effect of AQTGTGKT (SEQ ID NO: 1 synthesized from L-amino acid) peptide on tumor metastatic ability of an anticancer drug-resistant cell line, long metastasis was carried out using the anticancer drug-resistant cell line and an immunodeficient mouse by a known method.
# Celastrol-resistant melanoma cell line (Malme3M^R) having high expression of CAGE was injected into the tail vein of a nude mouse at 1×10^6 cells, and then the metastasis of a tumor into the lung was induced for 2-3 weeks. From day 4 after tumor cell injection, AQTGTGKT (SEQ ID NO: 1 synthesized from L-amino acid) peptide (10 μg/mouse) was injected into the tail vein in a total of 6 times every 3 days, and the lung tissue was excised and the number of tumor nodules was measured by a known method.
# [14] = test system: Malme3M^R tumor tissues; test: Tumor-specific migration (in vivo homing); parameters: species or system immunodeficient mice; details: 12 hours after tail vein injection; in vivo imaging of extracted tissues
# Method: In order to examine that the AQTGTGKT (SEQ ID NO: 1 synthesized from L-amino acid) peptide is a tumor-specific peptide, experiments were carried out by a known method using FITC-AQTGTGKT (FITC-SEQ ID NO: 1) and anticancer drug-resistant cell lines and immunodeficient mice.
# Celastrol-resistant melanoma cell line (Malme3M^R) having high expression of CAGE was injected into immunodeficient mice by a known method to induce tumors, and then 12 hours after FITC-AQTGTGKT (FITC-SEQ ID NO: 1) was injected into the tail vein, normal tissues (brain, heart, spleen, Liver, lung, etc.) and tumor tissues were extracted and examined using a small in vivo imaging system.
# [15] = test system: SNU387^R; test: Intracellular migration, fluorescent microscope; format: cell-based; details: 24 hours after transfection
# Method: as §5
# (§8) Celastrol-resistant liver cancer cell line (SNU387^R) and melanoma cell line (Malme3M^R) having high expression of CAGE were transfected with FITC-AQTGTGKT (FITC-SEQ ID NO: 1) peptide, and after 24 hours, the cell lines were examined under a fluorescent microscope.
# [16] = test system: Malme3M^R; test: Intracellular migration, fluorescent microscope; format: cell-based; details: 24 hours after transfection
# Method: as §5, §8
# T1 sequence (Q86TM3 whole entry): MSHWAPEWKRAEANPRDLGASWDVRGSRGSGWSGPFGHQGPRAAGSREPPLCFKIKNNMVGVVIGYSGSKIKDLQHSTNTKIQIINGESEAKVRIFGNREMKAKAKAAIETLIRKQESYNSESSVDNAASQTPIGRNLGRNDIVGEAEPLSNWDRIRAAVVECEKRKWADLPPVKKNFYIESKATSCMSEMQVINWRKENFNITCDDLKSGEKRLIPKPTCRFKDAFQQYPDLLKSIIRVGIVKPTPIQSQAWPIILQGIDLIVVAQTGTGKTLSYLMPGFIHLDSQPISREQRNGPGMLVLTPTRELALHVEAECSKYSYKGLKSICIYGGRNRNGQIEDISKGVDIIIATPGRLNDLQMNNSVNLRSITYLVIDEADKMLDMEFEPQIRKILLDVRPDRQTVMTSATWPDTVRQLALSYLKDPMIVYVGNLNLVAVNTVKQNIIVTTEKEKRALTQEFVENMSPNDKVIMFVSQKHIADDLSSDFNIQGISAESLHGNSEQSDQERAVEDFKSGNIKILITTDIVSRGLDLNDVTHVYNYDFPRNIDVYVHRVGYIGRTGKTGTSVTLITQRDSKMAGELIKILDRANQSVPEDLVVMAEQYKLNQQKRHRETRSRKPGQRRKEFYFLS
# T2 sequence (Q86TM3 whole entry): as above
Substance,angiogenesis inducing ability [1],cleavage of PARP and FAK proteins [2],cleavage of PARP and FAK proteins [3],cell migration [6],cell migration [7],interconnection of CAGE and GSK3β proteins [8],interconnection of CAGE and GSK3β proteins [9],dephosphorylation of GSK3β ser9 [10],expression of Cyclin D1 [10],dephosphorylation of GSK3β ser9 [11],expression of Cyclin D1 [11],also measured
AQTGTGKT (listed as Homo sapiens),remarkably reduced,significantly observed,significantly observed,inhibited,inhibited,inhibited,inhibited,inhibited,inhibited,inhibited,inhibited,dephosphorylation of GSK3β ser9 [4]: inhibited; expression of Cyclin D1 [4]: inhibited; interconnection of CAGE and GSK3β proteins [4]: inhibited; tumorigenicity (tumor size) ([5]; alone): reduced; anticancer drug resistance (tumor size) ([5]; in combination with Celastrol or Taxol): reduced; GSK3β ser9 dephosphorylation [12]: reductions; cyclin D1 expression [12]: reductions; expression of MDR1 [12]: inhibited; interconnection of CAGE and GSK3β proteins [12]: inhibited; tumor metastasis (number of lung tumor nodules) [13]: reduced
D-AQTGTGKT ([dA][dQ][dT]G[dT]G[dK][dT]; listed as Homo sapiens),remarkably reduced,significantly observed,significantly observed,inhibited,inhibited,inhibited,inhibited,inhibited,inhibited,inhibited,inhibited,
FITC-AQTGTGKT ({FITC}-AQTGTGKT; listed as Homo sapiens) [AQTGTGKT peptide conjugated to fluorescein isothiocyanate (FITC)],,,,,,,,inhibited,inhibited,inhibited,inhibited,migration to tumor tissues vs normal tissues [14]: migrated specifically to tumor tissues; migration of peptide into the cells [15]: migrated into the cells; migration of peptide into the cells [16]: migrated into the cells
